{"source": "patent US20090130187A1", "about": "“Covalent Conjugates of Cotton and Substitutes (Viscose, Modal Cotton) with Bioactive Substances Having Antiseptic, Sanitizing, Acaricidal and Insect Repellent Activity, and a Method for Obtaining Them” (priority 2006, published 2009)", "origin": "cited, not measured here", "system": "rat", "data": [{"smiles": "Clc1nc(Cl)nc(Cl)n1", "note": "[2,4,6-tri-chloro 1,3,5 triazine]", "values": [{"measurement": "LD 50 (rat)", "result": 930, "unit": "mg/kg"}]}]}
